Experiments:
BT549 cells = assay: Crystal violet growth assay, BT549; type: cell-based, human; conditions: day seven
From the text: Supplementary Figure 8. […]
ANOVA. b, Effects of ENDX on cell proliferation at the indicated concentrations on day seven of
treatment. […]

[1] = test system: AKT^Ser473 phosphorylation in T47D-LTED cells; assay: Immunoblot of pAKT^Ser473, T47D-LTED; type: cell-based, human; conditions: CSS medium, 24 h; 5 µM
Protocol: Protein lysates were prepared using the RIPA lysis buffer system (ChemCruz #sc-24948) and quantified using the DC^TM Protein Assay reagents (Bio-Rad #5000112). Equal amounts of protein lysates were separated on 10% Criterion gels (Bio-Rad #3450112), transferred to PVDF membranes (Bio-Rad #1620177), blocked in TBST-5% milk and probed with primary antibodies listed in Supplementary Table 5, at the indicated dilutions. Membranes were incubated with HRP-conjugated anti-rabbit (CST #7074) or anti-mouse (CST #7076) secondary antibodies and visualized using chemiluminescent West Pico (Thermo Scientific #34580) or West Femto (Thermo Scientific #34096) reagents and a Li-Cor Odyssey® XF imager. Protein lysates from the MCF7AC1 xenograft model were obtained from a previous study. Quantitation of the protein bands signal intensity was performed using the NIH ImageJ image analysis software (https://imagej.nih.gov/ij///index.html). For the quantitation of the phospho protein levels, we first normalized total protein levels to β-actin loading control and used these values to normalize the phospho protein levels and compared change in protein expression levels relative to vehicle control normalized to 1.0. For the quantitation of total protein levels, we normalized the total protein levels to β-actin and compared change in expression levels relative to vehicle control normalized to 1.0. […]

MCF7AC1 cells = assay: Crystal violet cell viability / proliferation assay, MCF7AC1; type: cell-based, human; conditions: CSS medium, 48 h, 0 to 10 µM tested
Protocol: Fig. 1 Z-endoxifen (ENDX) effects on cell viability and apoptosis in estrogen deprived ERα+ /HER2- MCF7AC1 cells. a Cells grown in CSS medium were treated with vehicle control or the indicated ENDX concentrations for […]. Cell viability was assessed by the crystal violet assay. b Cells were co-treated with vehicle control or the indicated ENDX concentrations, IncuCyte Annexin V green and NucLight red reagents in CSS medium for 48 h. […] Data represents the mean of six wells per treatment performed as biological duplicates ± s.d. **p ≤ 0.01; ***p ≤ 0.001; ****p ≤ 0.0001 by one-way ANOVA.
(§1) Cells were plated at a density of 2000 cells per well. Cell viability of (i) vehicle or drug treated MCF7AC1 and T47D-LTED cells in CSS medium, (ii) siNT or siPKCβ-transfected MCF7AC1 cells in CSS medium and (iii) T47D cells in FBS versus CSS medium were analyzed by crystal violet staining assay after 6 days of treatment or siRNA transfection as previously described. Cell viability was calculated as the average absorbance of the drug treated cells divided by the average absorbance of the vehicle treated cells × 100.

PKCβ1 = PKCβ1 (Homo sapiens, UniProt P05771); assay: Surface plasmon resonance (SPR) binding to immobilized PKCβ1; conditions: 100–8000 nM ENDX; no saturation, accurate KD could not be established
Protocol: Binding assays were performed at 25 °C on a Biacore T200 biosensor (GE healthcare). Purified PKCβ1 protein were immobilized on a CM5 S sensor chip using amino coupling and immobilization buffer (10 mM HEPES, 150 mM NaCl, pH 7.4, P20 0.01% (w/w)) and acetate pH 5.0 at a flow rate of 10 µL/min and reaching 10,000-12,000 resonance units (RUs). ENDX at concentrations ranging from 0–8000 nM in phosphate buffer (Gibco) with 2% DMSO (v/v) and 0.01% (w/w) P20 were run over the chips at a flow rate of 50 µl/min for 30 s. Binding kinetics were derived from sensograms using Biacore BIA evaluation software (GE). Sensograms were subtracted for background contributions, and affinity constants were derived using a steady-state affinity fitting of a 1:1 interaction model.

T47D-LTED cells = assay: Crystal violet cell viability assay, T47D-LTED; type: cell-based, human; conditions: CSS media, six days; 5 µM
Protocol: as §1
Supplementary Figure 6. […] Cell viability is assessed by the crystal violet assay. b, MCF7AC1 cells were co-treated with vehicle control or 0.01, 0.1 and 5 µM MK-2206 and IncuCyte Annexin V green and NucLight rapid red reagents in CSS medi um for 48 hours. […]
Cells were plated at a density of 2000 cells per well. c, MCF7AC1 cells were treated with vehicle control or 0.01, 0.1 and 5 µM MK-2206 in CSS medium for 24 hours. […] Cell viability is assessed by the crystal violet assay. f, Parental T47D and T47D-LTED cells were processed for protein lysates. […] Cell viability is assessed by the crystal violet assay. h, T47D-LTED cells were co-treated with vehicle control or 0.01, 0.1 and 5 µM MK -2206 and IncuCyte Annexin V green and NucLight rapid red reagents in CSS medium for 48 hours. […] Cell viability is assessed by the crystal violet assay. […]

PKC alpha (PKCa) = PKC alpha (PKCa) (Homo sapiens, UniProt P17252); assay: In vitro kinase assay, PKC alpha; type: biochemical; conditions: 10 μM ATP
From the text: Supplementary Table 4. In vitro kinase assay showing the IC 50 concentration of ENDX and
of the 12 PKC family members.
(1 picture or pasted object on this page, not shown here)

Sequence of PKCβ1 (P05771 whole entry): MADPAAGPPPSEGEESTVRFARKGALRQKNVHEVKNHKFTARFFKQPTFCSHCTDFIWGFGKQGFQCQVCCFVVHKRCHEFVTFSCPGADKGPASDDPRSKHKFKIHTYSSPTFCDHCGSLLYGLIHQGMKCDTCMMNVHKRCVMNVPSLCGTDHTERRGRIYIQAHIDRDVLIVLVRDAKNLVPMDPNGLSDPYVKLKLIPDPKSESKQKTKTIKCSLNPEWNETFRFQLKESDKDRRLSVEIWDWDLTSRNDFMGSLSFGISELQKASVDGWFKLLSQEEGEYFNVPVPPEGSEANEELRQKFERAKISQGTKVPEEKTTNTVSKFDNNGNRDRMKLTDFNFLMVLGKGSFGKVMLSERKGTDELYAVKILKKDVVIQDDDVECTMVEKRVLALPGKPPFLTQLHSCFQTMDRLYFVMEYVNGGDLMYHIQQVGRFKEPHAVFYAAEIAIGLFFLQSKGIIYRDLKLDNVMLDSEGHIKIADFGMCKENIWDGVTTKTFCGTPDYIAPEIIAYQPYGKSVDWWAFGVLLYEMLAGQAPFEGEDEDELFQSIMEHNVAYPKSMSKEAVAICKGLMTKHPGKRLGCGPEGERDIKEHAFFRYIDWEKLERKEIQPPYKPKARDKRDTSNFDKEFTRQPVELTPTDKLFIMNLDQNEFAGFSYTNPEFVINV

## CC/C(=C(\c1ccc(O)cc1)c1ccc(OCCNC)cc1)c1ccccc1 [ENDX, Z-endoxifen]
BT549 cells
  Concentrations at which growth was inhibited: > 7.5 µM
[1]
  Effect on AKT^Ser473 phosphorylation: attenuated AKT^Ser473 phosphorylation
MCF7AC1 cells
  Concentrations that significantly reduced cell viability: ≥ 2.5 µM
PKCβ1
  Binding to PKCβ1 by SPR: binds PKCβ1
T47D-LTED cells
  Effect on growth: inhibited growth
PKC alpha (PKCa)
  IC50: > 50 µM

From paper PMC10730845, “Endoxifen downregulates AKT phosphorylation through protein kinase C beta 1 inhibition in ERα+ breast cancer” (NPJ Breast Cancer, 2023)
